The text below walks through data of PMC10560226, “Triepoxide formation by a flavin-dependent monooxygenase in monensin biosynthesis” (Nature Communications, 2023).

Assay [1] has as its target T1, MonCI (Streptomyces virginiae, UniProt Q846W9).
T1 construct: gene monC1; N-terminal 6xHis-tag, pCold vector, E. coli BL21-AI; model covers residues 4-480 (chain A), last residue 496
T1 sequence (Q846W9 1-496): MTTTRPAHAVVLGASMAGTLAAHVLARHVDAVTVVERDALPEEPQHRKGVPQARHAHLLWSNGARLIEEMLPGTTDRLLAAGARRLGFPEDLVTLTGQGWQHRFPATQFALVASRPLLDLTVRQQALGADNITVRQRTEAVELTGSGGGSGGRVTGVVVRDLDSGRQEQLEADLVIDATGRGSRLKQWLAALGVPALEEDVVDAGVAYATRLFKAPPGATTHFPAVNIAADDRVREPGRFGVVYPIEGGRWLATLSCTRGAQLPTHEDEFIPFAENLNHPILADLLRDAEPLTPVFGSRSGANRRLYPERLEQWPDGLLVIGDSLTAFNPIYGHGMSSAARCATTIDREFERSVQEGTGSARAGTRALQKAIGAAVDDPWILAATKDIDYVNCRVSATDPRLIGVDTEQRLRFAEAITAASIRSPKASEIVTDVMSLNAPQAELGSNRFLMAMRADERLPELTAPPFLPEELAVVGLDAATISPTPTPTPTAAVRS
Description: X-ray crystal structure, […] Å. Type of assay: binding. The settings on record: noncovalently bound, co-purified; isoalloxazine ring in "in" conformation; pH 6.5-6.8 crystals.

The target in assay [2] is T1, MonCI. Description: LC-MS of epoxide products. The format is biochemical. The settings on record: 160 µM FHB, 15 µM MonCI, 80 µM FAD, Fre, NADH or NADH regeneration (glucose dehydrogenase), 50 mM Tris pH 8.0, 300 mM NaCl, 30 °C, 6 h.
Assay [3] concerns the target T1, MonCI. Description: HPLC of epoxide product. Type of assay: biochemical. The conditions noted are these: electron donor, 4 mM; FHB 160 µM, Tris pH 8.0, 30 °C, 6 h.
The target of assay [4] is MonCI (Streptomyces cinnamonensis). The assay can be described thus: ITC; MicroCal ITC200, 25 °C, 100 mM phosphate pH 8.0; MonCI in the cell (60 μM with wild-type MonACPX 1.2 mM in the syringe; 100 μM with control ACP 1.0 mM in the syringe); 20 injections; one site model; performed twice. A general note: Isothermal titration calorimetry measures the heat released or taken up as one component is titrated into another.

`Cc1cc2nc3c(=O)[nH]c(=O)nc-3n(C[C@H](O)[C@H](O)[C@H](O)COP(=O)(O)OP(=O)(O)OC[C@H]3O[C@@H](n4cnc5c(N)ncnc54)[C@H](O)[C@@H]3O)c2cc1C` [FAD]: the “X-ray crystal structure, 1.9 Å” value in assay [1] is “One FAD coenzyme and one chloride ion were found in each chain”. `CC(C)=CCCC(C)=CCCC(C)=CCOC(=O)c1ccc(O)cc1` [FHB, farnesyl 4-hydroxybenzoate]: the “LC-MS of epoxide products” value in assay [2] was “MonCI can perform multiple epoxidations on the same substrate molecule”. `NC(=O)C1=CN([C@@H]2O[C@H](COP(=O)(O)OP(=O)(O)OC[C@H]3O[C@@H](n4cnc5c(N)ncnc54)[C@H](O)[C@@H]3O)[C@@H](O)[C@H]2O)C=CC1` [NADH]: the “HPLC of epoxide product” value in assay [3] is “MonCI has similar preference for NADH and NADPH”.

Regarding apo-DEBS ACP2 (domain or fragment), in assay [4], the Kd stood at 49.8 µM. wild-type apo-MonACPX (natural protein): in assay [4], the equilibrium dissociation constant (Kd) amounted to 10.7 µM.

As a reminder, the Kd is the constant that tells how readily two partners part at equilibrium. Higher therefore signals weaker binding.
